The values below come from ChEMBL document CHEMBL1201862, “PubChem BioAssay data set” (2004).

Each structure is given as a SMILES string.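 A five-concentration, 48-hour dose response in 96-well plates underlies each endpoint, interpolated linearly between surrounding concentrations. GI50 = concentration required for 50% inhibition of growth.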 Active and inactive are the calls of the source. Rule as the data show it: active = GI50 up to about 1.1 µM and inactive = higher.

What all share (test): growth of human tumour cells (NCI), 48 h
The test system of assay [1] is DU-145.
In assay [2] the test system is T47D.
In assay [3] the test system is KM-20L2.
The test system of assay [4] is HOP-18.
Assay [5] relates to XF498.
For assay [6], the system named is SNB-78.
Assay [7] concerns DMS-273.
Assay [8] concerns LXFL 529.

Take `Cc1ccnc(NC(=S)Nc2ccccc2Cl)c1`: the GI50 in assay [1] and in assay [2] was > 100 µM (inactive) each time.

With `CCCC(C(=O)Nc1cccc2nc[nH]c12)C(=O)OCC` (configuration not stated), the GI50 in assay [1] and in assay [2] was > 100 µM (inactive) throughout.

Turning to `CCc1nc(N)c2nc(-c3ccc(C#N)cc3)oc2n1`, the GI50 in assay [1] and in assay [2] was > 100 µM (inactive) in each case.

As to `CCCCCCCCC/C=C1\CC(CO)(COC(=O)c2ccccc2)OC1=O` (configuration not stated), the GI50 in assay [1] and in assay [2] was 29.1 µM (inactive) in each case.

Turning to `c1ccc2c(c1)[nH]c1c2cc[n+]2cc3c(cc12)CCCC3`, the GI50 in assay [1] is 2.69 µM (inactive); in assay [2], 1.66 µM (inactive).

Consider `COc1ccc2c(c1)CC[C@@H]1[C@@H]2CC[C@]2(C)C(=O)/C(=C/c3ccc(O)c(OC)c3)C[C@@H]12`, for which the results for the GI50 in assay [1] and in assay [2] were 92.9 µM (inactive) and 96.6 µM (inactive), respectively.

As to `COC(=O)C(C/C=C(\C)c1ccccc1)C(C)=O` (configuration not stated), the GI50 in assay [3] was > 100 µM (inactive); in assay [4] it was > 100 µM (inactive); in assay [5], > 80.9 µM (inactive); in assay [6] it was > 68.5 µM (inactive); in assay [7] it was > 83.9 µM (inactive).

On to `CS/C1=C(\c2ccc(C)cc2)N(c2ccccc2)C(=O)C(=O)N(c2ccccc2)/C(c2ccc(C)cc2)=C(/SC)SS1`, for which the GI50 in assay [1] and in assay [2] was > 100 µM (inactive) throughout.

Take `CN(C)/N=C1\CC(c2ccccc2)C(C#N)(C#N)C1(C#N)C#N` (configuration not stated): the GI50 in assay [1] and in assay [2] was 21 µM (inactive) in each case.

Consider `COC(=O)C(CC(=O)c1cc2c(cc1I)OCO2)Cc1cc(OC)c(OC)c(OC)c1I` (configuration not stated), for which the GI50 was > 100 µM (inactive) in assay [3]; > 100 µM (inactive) in assay [4]; > 100 µM (inactive) in assay [5]; 12.2 µM (inactive) in assay [8]; > 100 µM (inactive) in assay [7].

Turning to `CC(CC[C@@]1(C)C(=O)CCC2O[C@]21C)[C@H]1C[C@@H](c2ccoc2)OC1=O` (some centres not stated), the GI50 is 57.9 µM (inactive) in assay [1] and > 100 µM (inactive) in assay [2].

With `O=C1c2cc3c(cc2CC12Cc1ccc4c(c1C2=O)CCC4)CCC3` (configuration not stated), the GI50 in assay [1] and in assay [2] was > 100 µM (inactive) throughout.

On to `COC(=O)C1=C(C(=O)OC)SC2(S1)C1=C(CCC1)SC(C(=O)OC)=C2C(=O)OC`, for which the figures for the GI50 in assay [1] and in assay [2] were 4.4 µM (inactive) and 9.25 µM (inactive), respectively.

Regarding `Cc1nc(O)nc2c1C(NCCCN(C)C)c1cc(Cl)ccc1N2` (configuration not stated), the GI50 is 12 µM (inactive) in assay [3]; 16.6 µM (inactive) in assay [5]; 16.9 µM (inactive) in assay [8]; 15.3 µM (inactive) in assay [6]; 12.7 µM (inactive) in assay [7].

Turning to `O=C1OC(c2ccco2)=N/C1=C\c1ccc(Cl)c(Cl)c1`, the GI50 in assay [1] was 98.6 µM (inactive); in assay [2], 40.9 µM (inactive).

`COc1cccc(-c2nc3c(C(=O)NCCN(C)C)cccc3[nH]2)c1`: the GI50 in assay [3] was 14.4 µM (inactive); in assay [4] it was 18.4 µM (inactive); in assay [6], 40.4 µM (inactive); in assay [7] it was 11.3 µM (inactive).

In the case of `CC1(C)OC2OC(C(=O)c3ccccc3)C3OC(C)(C)OC3C2O1` (configuration not stated), the GI50 in assay [1] and in assay [2] was > 100 µM (inactive) throughout.

Turning to `CC(CC(C)[C@H]1CCC2[C@H]3C(CC[C@@]21C)[C@@]1(C)CCC(O)C[C@H]1C[C@@H]3O)C(=O)O` (some centres not stated), the GI50 in assay [1] and in assay [2] was > 100 µM (inactive) in each case.

Regarding `COC(=O)C1CC2CC1C1C2SC(F)(F)C1(F)F` (configuration not stated), the GI50 in assay [1] and in assay [2] was > 100 µM (inactive) throughout.

Consider `CCOC(=O)C(O)(NC(C)=O)C(F)(F)F` (configuration not stated), for which the GI50 in assay [1] and in assay [2] was > 100 µM (inactive) in each case.

`COc1ccc(-c2c(C(C)=O)c(C)n(C3OC(CO)C(O)C(O)C3O)c(=S)c2C#N)cc1` (configuration not stated): the GI50 is > 100 µM (inactive) in assay [1] and 34.6 µM (inactive) in assay [2].

Turning to `COC(=O)CNCC1OC2OC(C)(C)OC2C1N=[N+]=[N-]` (configuration not stated), the GI50 in assay [1] and in assay [2] was > 100 µM (inactive) throughout.

As for `NC(CO)C(=O)NCC(=O)O` (configuration not stated), the GI50 in assay [1] and in assay [2] was > 100 µM (inactive) throughout.

With `CCOC(=O)/C(=C/c1ccco1)P(=O)(OCC)OCC`, the GI50 in assay [4], in assay [5], in assay [8] and in assay [6] was > 100 µM (inactive) throughout.

Regarding `[O-]/[N+](=N/c1ncc(-c2ccccc2)cn1)c1ncc(-c2ccccc2)cn1`, the GI50 in assay [1] was > 100 µM (inactive); in assay [2], > 79.8 µM (inactive).

As for `O=C(/C=C/c1ccccc1O)/C=C/c1ccccc1O`, the GI50 in assay [1] is 1.51 µM (inactive).

For the compound `Cc1ccc(-c2n[nH]c(=O)n2N2C(=O)c3ccccc3C2=O)cc1`, the GI50 is > 100 µM (inactive) in assay [1] and 68.9 µM (inactive) in assay [2].

As for `CC1=C(C#N)c2nc3ccccc3n2C(=O)C1(C)CCO` (configuration not stated), the GI50 in assay [1] was > 100 µM (inactive).

Regarding `COc1cc(C2C(Cl)C(=O)N2NC(=O)c2ccc(NC(C)=O)cc2)cc(Br)c1O` (configuration not stated), the GI50 in assay [4] and in assay [8] was > 100 µM (inactive) in each case.

Consider `O=C1Sc2ccccc2C(=O)N2CCSC12` (configuration not stated), for which the GI50 was > 100 µM (inactive) in assay [3]; 25.6 µM (inactive) in assay [4]; > 100 µM (inactive) in assay [8]; > 100 µM (inactive) in assay [6]; > 100 µM (inactive) in assay [7].

With `O=C(c1ccccc1O)c1cc(-c2ncc3c(=O)c4ccccc4oc3n2)c(-c2ccccc2O)[nH]c1=O`, the GI50 is 33.3 µM (inactive) in assay [4], 29.9 µM (inactive) in assay [5], 34.2 µM (inactive) in assay [6] and 26.8 µM (inactive) in assay [7].

Consider `CN1CCCOC(c2ccc([N+](=O)[O-])cc2)O1` (configuration not stated), for which the GI50 in assay [1] and in assay [2] was > 100 µM (inactive) in each case.

Take `Cc1nc2c(n1-c1ccccc1)C(=O)c1ccccc1C2=O`: the GI50 in assay [6] is 27.5 µM (inactive); in assay [7], 39.4 µM (inactive).

In the case of `O=C(Nc1ccccc1)N1CC(CN2CCN(c3ccccc3)CC2)OC1=O` (configuration not stated), the GI50 in assay [1] and in assay [2] was > 100 µM (inactive) throughout.

Consider `CCOP(=O)(OCC)C(C)(CC)N/C(N)=N/C#N` (configuration not stated), for which the GI50 in assay [1] and in assay [2] was > 100 µM (inactive) in each case.

As to `O=C(O)CNCCc1ccccc1`, the GI50 in assay [1] and in assay [2] was > 100 µM (inactive) in each case.

Consider `O=C(O)CCS/C(=C\C(SCCC(=O)O)c1ccc(Cl)cc1)c1ccc(Cl)cc1` (configuration not stated), for which the GI50 was 57.9 µM (inactive) in assay [1] and 41.9 µM (inactive) in assay [2].

Take `CC[C@@H]1CC[C@@H]2[C@H](CC[C@]3(C)[C@@H](OC(C)=O)CC[C@@H]23)[C@H]1COC(C)=O`: the GI50 in assay [1] was > 100 µM (inactive); in assay [2], 32.1 µM (inactive).

Regarding `CSc1nncc2[nH]c(C)nc12`, the GI50 in assay [2] is > 100 µM (inactive).

Take `CN(C)/C=C/c1nnnn1-c1ccc(I)cc1`: the GI50 in assay [1] was 28.2 µM (inactive); in assay [2], 9.44 µM (inactive).

Take `NCc1ccccc1C1CSCSC1`: the GI50 in assay [5], in assay [8], in assay [6] and in assay [7] was > 100 µM (inactive) throughout.

Take `CC[C@@]12CCC(=S)N(CCSc3ccccc3)[C@@H]1c1c(n(S(=O)(=O)c3ccc(OC)cc3)c3ccccc13)CC2`: the GI50 in assay [1] and in assay [2] was > 100 µM (inactive) in each case.

`CCCCCC(/C=C/[C@@H]1CC(=O)C[C@H]1O[Si](C)(C)C(C)(C)C)OCOCCOC` (some centres not stated): the GI50 in assay [1] is 16.3 µM (inactive); in assay [2], 11.1 µM (inactive).

On to `CCOC(=O)C12CCC(=O)C=C1[C@@H](C)C(=O)CC2` (some centres not stated), for which the GI50 in assay [3], in assay [5], in assay [8] and in assay [7] was > 100 µM (inactive) in each case.

On to `Cc1nc2cc(/N=N/c3c(C)noc3C)ccc2[nH]1`, for which the GI50 in assay [1] is 27.7 µM (inactive); in assay [2], 1.67 µM (inactive).

`Oc1cc(-c2ccc(Oc3ccccc3)cc2)nc2cc3c(cc12)OCO3`: the GI50 in assay [3], in assay [5], in assay [8] and in assay [7] was > 100 µM (inactive) in each case.

Turning to `CCCCC1=NNC(=O)C1`, the GI50 in assay [2] is > 100 µM (inactive).

For `COc1ccc(C(=O)N=C2N(c3ccccc3)C(=N/c3ccccc3)/C(=N\c3ccccc3)N2c2ccccc2)cc1`, the results for the GI50 in assay [1] and in assay [2] were > 100 µM (inactive) and > 58.6 µM (inactive), respectively.

Take `COC1OC(C(C)O)C2OC(C)(C)OC12` (configuration not stated): the GI50 in assay [1] and in assay [2] was > 100 µM (inactive) in each case.

As for `N=C1NC(c2ccc(Cl)cc2)=CC(c2cccc(Cl)c2)S1` (configuration not stated), the results for the GI50 in assay [1] and in assay [2] were 66.1 µM (inactive) and 25.4 µM (inactive), respectively.

As to `O=C1C[C@@]23CCC4(CC2CCC[C@H]3O1)OCCO4` (some centres not stated), the GI50 in assay [1] and in assay [2] was > 100 µM (inactive) each time.

For the compound `CCOC(=O)c1sc2nc(SC)nc3c2c1NCN3C`, the GI50 in assay [1] is 70.1 µM (inactive); in assay [2] it was 6.79 µM (inactive).

Regarding `Clc1ccc(Cc2nc3cc(Cl)c(Cl)cc3n2CC2CCCN3CCCCC23)cc1` (configuration not stated), the GI50 in assay [1] is 12 µM (inactive); in assay [2] it was 18.1 µM (inactive).

As to `CC(=O)c1ccc(NC(=O)/C(=N\NC(N)=O)C(C#N)CC(C)(C)C=O)cc1` (configuration not stated), the GI50 in assay [3], in assay [5], in assay [8], in assay [6] and in assay [7] was > 100 µM (inactive) each time.

Take `CCOC(=O)C(Cl)(NC(=O)OCc1ccccc1)C(F)(F)F` (configuration not stated): the GI50 in assay [1] and in assay [2] was > 100 µM (inactive) throughout.

`COc1ccc(C[C@@H]2OC3(C=CC(=O)CC3Sc3ccccc3)O[C@H]2Cc2ccc(OC)cc2)cc1` (some centres not stated): the GI50 in assay [1] is 2.23 µM (inactive); in assay [2], 0.813 µM (active).

Regarding `O=c1c2cccnc2[nH]c2ccc3cn[nH]c3c12`, the GI50 in assay [1] and in assay [2] was > 10 µM (inactive) in each case.

For the compound `O=C1c2ccccc2C2(O)NC(=S)N(c3ccccc3)C12O` (configuration not stated), the GI50 in assay [3], in assay [4], in assay [5], in assay [8] and in assay [6] was > 100 µM (inactive) throughout.
